# In paper PMC11845761, “Intestinal human carboxylesterase 2 (CES2) expression rescues drug metabolism and most metabolic syndrome phenotypes in global Ces2 cluster knockout mice” (Acta Pharmacologica Sinica, 2024):
# Marks after values point to notes of the source that are not given here.
# Tests used:
# [1] = Tissue concentrations of vinorelbine and deacetylvinorelbine 4 h after oral vinorelbine in CES2-modified mice; type: in vivo, mouse; settings: oral vinorelbine 10 mg/kg
# Procedure: (§1) For capecitabine 2-h experiments, 6–7 female mice received oral capecitabine (500 mg/kg, 10 μL/g), and tail vein blood samples were collected at 0.125, 0.25, 0.5 and 1 h after drug administration. For the vinorelbine 4-h experiment, 6-7 male mice received vinorelbine intravenously (10 mg/kg, 5 μL/g) or orally (10 mg/kg, 10 μL/g) using a blunt-ended needle. Tail vein blood samples were collected at 0.125, 0.25, 0.5, 1 and 2 h after drug administration. […] At the last time point in each experiment (2 or 4 h), mice were anesthetized with 5% isoflurane and blood was collected by cardiac puncture. […] Plasma was isolated from the blood by centrifugation at 9000 × g for 6 min at 4 °C, and the plasma fraction was collected and stored at −30 °C until analysis.
# (§2) Concentrations of capecitabine (and its metabolites) and vinorelbine (and its metabolite) in mouse plasma samples and organ homogenates were determined using two independent validated high-performance liquid chromatography-tandem mass spectrometry assays.
# (§3) Pharmacokinetic parameters were calculated by non-compartmental methods using the PK solver software. […] Differences were considered statistically significant when P < 0.05. All data are presented as mean ± SD.
# [2] = design: method as in PMID 11822766; settings: 24 patients; oral vinorelbine 80 mg/m^2; cited from earlier work
# [3] = Tissue concentrations of vinorelbine and deacetylvinorelbine 4 h after i.v. vinorelbine in CES2-modified mice; type: in vivo, mouse; settings: i.v. vinorelbine 10 mg/kg
# Procedure: as §1, §2, §3
structure (smiles),measurement,setting,value
"CCC1=C[C@@H]2CN(C1)Cc1c([nH]c3ccccc13)[C@@](C(=O)OC)(c1cc3c(cc1OC)N(C)[C@H]1[C@@](O)(C(=O)OC)[C@H](O)[C@]4(CC)C=CCN5CC[C@]31[C@@H]54)C2 [Deacetylvinorelbine, 4’-O-deacetylvinorelbine]",Ccolon (colon concentration),[1]; male Ces2^–/–V mice,8.1 ± 4.8 ng/g
same,Cliver (liver concentration),[1]; male Ces2^–/–V mice,178 ± 110 ng/g
same,Colon Ratio (x 10^-3) (deacetylvinorelbine /vinorelbine),[1]; male Ces2^–/–V mice,13 ± 3.7 x 10^-3
same,Liver Ratio (x 10^-3) (deacetylvinorelbine /vinorelbine),[1]; male Ces2^–/–V mice,21 ± 7.8 x 10^-3
same,Small intestine Ratio (x 10^-3) (deacetylvinorelbine /vinorelbine),[1]; male Ces2^–/–V mice,49 ± 15 x 10^-3
same,Small intestine contents Ratio (x 10^-3) (deacetylvinorelbine /vinorelbine),[1]; male Ces2^–/–V mice,8.4 ± 3.4 x 10^-3
same,"liver deacetylvinorelbine-to-vinorelbine ratio, fold decrease vs wild-type",[1]; male Ces2^–/–V mice,238 fold
same,small intestine tissue deacetylvinorelbine-to-vinorelbine ratio,[1]; male Ces2^–/–V mice,0.049 ± 0.015
same,CSI (small intestine tissue concentration),[1]; male wild-type mice,9590 ± 4337 ng/g
same,CSIC (small intestine contents concentration),[1]; male wild-type mice,15491 ± 4320 ng/g
same,Ccolon (colon concentration),[1]; male wild-type mice,369 ± 240 ng/g
same,Cliver (liver concentration),[1]; male wild-type mice,7589 ± 2725 ng/g
same,Colon Ratio (x 10^-3) (deacetylvinorelbine /vinorelbine),[1]; male wild-type mice,1000 ± 390 x 10^-3
same,Liver Ratio (x 10^-3) (deacetylvinorelbine /vinorelbine),[1]; male wild-type mice,5000 ± 1000 x 10^-3
same,Small intestine Ratio (x 10^-3) (deacetylvinorelbine /vinorelbine),[1]; male wild-type mice,880 ± 220 x 10^-3
same,Small intestine contents Ratio (x 10^-3) (deacetylvinorelbine /vinorelbine),[1]; male wild-type mice,220 ± 73 x 10^-3
same,liver deacetylvinorelbine-to-vinorelbine ratio,[1]; male wild-type mice,5.0 ± 1.0
same,small intestine tissue deacetylvinorelbine-to-vinorelbine ratio,[1]; male wild-type mice,0.88 ± 0.22
same,plasma Cmax,[2],9.1 ± 3.3 ng/mL
same,CSI (small intestine tissue concentration),[3]; male Ces2^–/– mice,87 ± 15 ng/g
same,CSIC (small intestine contents concentration),[3]; male Ces2^–/– mice,291 ± 180 ng/g
same,Ccolon (colon concentration),[3]; male Ces2^–/– mice,58 ± 45 ng/g
same,Cliver (liver concentration),[3]; male Ces2^–/– mice,487 ± 127 ng/g
same,Colon Ratio (x 10^-3) (deacetylvinorelbine /vinorelbine),[3]; male Ces2^–/– mice,9.4 ± 3.8 x 10^-3
same,Liver Ratio (x 10^-3) (deacetylvinorelbine /vinorelbine),[3]; male Ces2^–/– mice,21 ± 1.9 x 10^-3
same,Small intestine Ratio (x 10^-3) (deacetylvinorelbine /vinorelbine),[3]; male Ces2^–/– mice,15 ± 1.2 x 10^-3
same,Small intestine contents Ratio (x 10^-3) (deacetylvinorelbine /vinorelbine),[3]; male Ces2^–/– mice,7.4 ± 1.0 x 10^-3
same,liver deacetylvinorelbine-to-vinorelbine ratio,[3]; male Ces2^–/– mice,0.021 ± 0.002
same,small intestine conversion ratio (deacetylvinorelbine-to-vinorelbine),[3]; male Ces2^–/– mice,0.015 ± 0.001
same,CSI (small intestine tissue concentration),[3]; male Ces2^–/–A mice,79 ± 13 ng/g
same,CSIC (small intestine contents concentration),[3]; male Ces2^–/–A mice,400 ± 315 ng/g
same,Ccolon (colon concentration),[3]; male Ces2^–/–A mice,42 ± 43 ng/g
same,Cliver (liver concentration),[3]; male Ces2^–/–A mice,584 ± 157 ng/g
same,Colon Ratio (x 10^-3) (deacetylvinorelbine /vinorelbine),[3]; male Ces2^–/–A mice,7.0 ± 3.7 x 10^-3
same,Liver Ratio (x 10^-3) (deacetylvinorelbine /vinorelbine),[3]; male Ces2^–/–A mice,25± 7.0 x 10^-3
same,Small intestine Ratio (x 10^-3) (deacetylvinorelbine /vinorelbine),[3]; male Ces2^–/–A mice,14 ± 1.0 x 10^-3
same,Small intestine contents Ratio (x 10^-3) (deacetylvinorelbine /vinorelbine),[3]; male Ces2^–/–A mice,8.1 ± 1.1 x 10^-3
same,liver deacetylvinorelbine-to-vinorelbine ratio,[3]; male Ces2^–/–A mice,0.025 ± 0.0070
same,small intestine conversion ratio (deacetylvinorelbine-to-vinorelbine),[3]; male Ces2^–/–A mice,0.014 ± 0.001
same,CSI (small intestine tissue concentration),[3]; male Ces2^–/–V mice,134 ± 47***^ ng/g
same,CSIC (small intestine contents concentration),[3]; male Ces2^–/–V mice,511 ± 322 ng/g
same,Ccolon (colon concentration),[3]; male Ces2^–/–V mice,120 ± 45***^ ng/g
same,Cliver (liver concentration),[3]; male Ces2^–/–V mice,513 ± 61 ng/g
same,Colon Ratio (x 10^-3) (deacetylvinorelbine /vinorelbine),[3]; male Ces2^–/–V mice,17 ± 4.7***^^ x 10^-3
same,Liver Ratio (x 10^-3) (deacetylvinorelbine /vinorelbine),[3]; male Ces2^–/–V mice,22 ± 6.6 x 10^-3
same,Small intestine Ratio (x 10^-3) (deacetylvinorelbine /vinorelbine),[3]; male Ces2^–/–V mice,17 ± 2.2***^^ x 10^-3
same,Small intestine contents Ratio (x 10^-3) (deacetylvinorelbine /vinorelbine),[3]; male Ces2^–/–V mice,10 ± 1.0 x 10^-3
same,liver deacetylvinorelbine-to-vinorelbine ratio,[3]; male Ces2^–/–V mice,0.022 ± 0.007
same,small intestine conversion ratio (deacetylvinorelbine-to-vinorelbine),[3]; male Ces2^–/–V mice,0.017 ± 0.002
same,CSI (small intestine tissue concentration),[3]; male wild-type mice,2214 ± 605 ng/g
same,CSIC (small intestine contents concentration),[3]; male wild-type mice,27594 ± 13421 ng/g
same,Ccolon (colon concentration),[3]; male wild-type mice,780 ± 199 ng/g
same,Cliver (liver concentration),[3]; male wild-type mice,26773 ± 10517 ng/g
same,Colon Ratio (x 10^-3) (deacetylvinorelbine /vinorelbine),[3]; male wild-type mice,340 ± 70 x 10^-3
same,Liver Ratio (x 10^-3) (deacetylvinorelbine /vinorelbine),[3]; male wild-type mice,2500 ± 1300 x 10^-3
same,Small intestine Ratio (x 10^-3) (deacetylvinorelbine /vinorelbine),[3]; male wild-type mice,630 ± 46 x 10^-3
same,Small intestine contents Ratio (x 10^-3) (deacetylvinorelbine /vinorelbine),[3]; male wild-type mice,1000 ± 270 x 10^-3
same,liver deacetylvinorelbine-to-vinorelbine ratio,[3]; male wild-type mice,2.5 ± 1.3
same,small intestine conversion ratio (deacetylvinorelbine-to-vinorelbine),[3]; male wild-type mice,0.63 ± 0.05
